We go through 21 molecules from patent US9428508B2, “2,4-diamino-6,7-dihydro-5H-pyrrolo[2,3]pyrimidine derivatives as FAK/Pyk2 inhibitors” (Centaurus BioPharma Co., Ltd., priority 2011, dated 2016).

Structures are written as SMILES. Bounds are passed on as bounds.

The target of one test is PYK2 (Homo sapiens (Human), UniProt Q14289). Briefly: Biochemical assay for PYK2 activity (LANCE TR-FRET, ULight-poly Glu,Ala,Tyr substrate). Conditions: GST-tagged PYK2, 40 min reaction. The procedure: (§1) Biochemical Assay for FAK/Pyk2 Activity
Sequence of PYK2 (Q14289 whole entry): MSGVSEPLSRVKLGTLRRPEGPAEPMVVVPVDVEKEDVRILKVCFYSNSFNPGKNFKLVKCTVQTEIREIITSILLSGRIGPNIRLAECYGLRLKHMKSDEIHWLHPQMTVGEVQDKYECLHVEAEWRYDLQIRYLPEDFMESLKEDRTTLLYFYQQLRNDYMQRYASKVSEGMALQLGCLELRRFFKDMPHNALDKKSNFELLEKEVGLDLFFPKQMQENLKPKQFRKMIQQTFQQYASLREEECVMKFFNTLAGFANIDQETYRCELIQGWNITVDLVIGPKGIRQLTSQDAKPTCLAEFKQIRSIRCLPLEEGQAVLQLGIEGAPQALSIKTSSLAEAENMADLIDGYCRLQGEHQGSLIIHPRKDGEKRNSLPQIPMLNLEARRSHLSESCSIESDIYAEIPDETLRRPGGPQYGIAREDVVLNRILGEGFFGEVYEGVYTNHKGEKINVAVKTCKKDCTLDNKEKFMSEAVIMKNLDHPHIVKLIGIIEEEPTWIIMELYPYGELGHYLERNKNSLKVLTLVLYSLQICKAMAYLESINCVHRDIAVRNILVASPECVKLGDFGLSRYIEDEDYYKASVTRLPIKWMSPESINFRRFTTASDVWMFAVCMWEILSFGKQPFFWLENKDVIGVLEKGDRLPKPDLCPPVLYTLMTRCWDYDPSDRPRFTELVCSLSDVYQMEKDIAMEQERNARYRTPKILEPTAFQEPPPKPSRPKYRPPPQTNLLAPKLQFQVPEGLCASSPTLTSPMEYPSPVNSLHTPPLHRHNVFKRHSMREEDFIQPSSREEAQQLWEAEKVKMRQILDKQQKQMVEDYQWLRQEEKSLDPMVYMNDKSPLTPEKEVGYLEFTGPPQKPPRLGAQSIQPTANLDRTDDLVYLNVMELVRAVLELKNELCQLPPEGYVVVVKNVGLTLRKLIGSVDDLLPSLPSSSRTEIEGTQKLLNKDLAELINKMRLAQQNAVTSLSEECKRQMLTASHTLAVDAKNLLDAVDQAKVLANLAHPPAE
(§2) GST-tagged FAK was purchased from Invitrogen (PV3832). GST-tagged PYK2 was purchased from Invitrogen (PV4567). The activity of FAK/PYK2 was measured by monitoring the phosphorylation of a fluorophore labeled ULight-poly Glu, Ala, Tyr (1:1:1) peptide substrate from Perkin Elmer (TRF0101) in the presence of ATP. The phosphorylated tyrosine residue was recognized by a LANCE Europium chelate labeled anti-phosphotyrosine (PY20) antibody from Perkin Elmer (AD0066). This brought the fluorophore and europium chelate in close proximity ([…]) that upon excitation at 320 nm by an Envision (PerkinElmer), energy can be transferred from the donor Europium chelate to the acceptor fluorophore. […] The strength of the signal was, therefore, directly proportional to the FAK/PYK2 activity.
(§3) To measure inhibitory activity of FAK/PYK2 inhibitors, compounds were first prepare as a 1 mM stock in 100% DMSO and 3-fold serial dilution was performed in a 96-well plate (Corning, 3897) to generate 12 different concentration of 100× stock. A 5 μl of 100× stock of each concentration was added to wells containing 95 μl of 1× reaction buffer (40 mM Tris, pH7.5, […], 1 mM DTT and 1 mM CHAPS) to generate 5× stock. Then 2 μl of 5× stock of each concentration was added to a 384 wells-OptiPlate (PerkinElmer, 6007299).
For PYK2, 5 μl of 2 nM PYK2 and 1.5 μl of 666 nM ULight-poly Glu, Ala, Tyr (1:1:1) peptide substrate, prepared in above reaction buffer, were added to each well. The reaction was initiated by adding 1.5 μl of 46.6 μM ATP. The reaction was allowed to proceed for 40 min before being quenched with 5 μl of 40 mM EDTA stop buffer prepared in 1×LANCE detection buffer (PerkinElmer, CR97-100).
(§4) Upon quenching of the reaction, 5 μl of 8 nM anti-phosphotyrosine antibody was added to each well and incubated for 60 minutes. The plate was measured using an Envision (PerkinElmer) based on the theory mentioned above.
In general terms: TR-FRET usually uses a lanthanide donor and a delayed reading to cut background.

The next test concerns the target FAK (Homo sapiens (Human), UniProt Q05397). Briefly: Biochemical assay for FAK activity (LANCE TR-FRET, ULight-poly Glu,Ala,Tyr substrate). Conditions: GST-tagged FAK, 120 min reaction. The procedure:
as §1, §2, §3
For FAK, 4 μl of 2.5 nM FAK, 1 ul of 8 μg/μl BSA and 1.5 μl of 666 nM ULight-poly Glu, Ala, Tyr (1:1:1) peptide substrate, prepared in above reaction buffer, were added to each well. The reaction was initiated by adding 1.5 μl of 33.3 μM ATP. The reaction was allowed to proceed for 120 min before being quenched with 5 μl of 40 mM EDTA stop buffer prepared in 1×LANCE detection buffer (PerkinElmer, CR97-100).
as §4

Sequence of FAK (Q05397 whole entry): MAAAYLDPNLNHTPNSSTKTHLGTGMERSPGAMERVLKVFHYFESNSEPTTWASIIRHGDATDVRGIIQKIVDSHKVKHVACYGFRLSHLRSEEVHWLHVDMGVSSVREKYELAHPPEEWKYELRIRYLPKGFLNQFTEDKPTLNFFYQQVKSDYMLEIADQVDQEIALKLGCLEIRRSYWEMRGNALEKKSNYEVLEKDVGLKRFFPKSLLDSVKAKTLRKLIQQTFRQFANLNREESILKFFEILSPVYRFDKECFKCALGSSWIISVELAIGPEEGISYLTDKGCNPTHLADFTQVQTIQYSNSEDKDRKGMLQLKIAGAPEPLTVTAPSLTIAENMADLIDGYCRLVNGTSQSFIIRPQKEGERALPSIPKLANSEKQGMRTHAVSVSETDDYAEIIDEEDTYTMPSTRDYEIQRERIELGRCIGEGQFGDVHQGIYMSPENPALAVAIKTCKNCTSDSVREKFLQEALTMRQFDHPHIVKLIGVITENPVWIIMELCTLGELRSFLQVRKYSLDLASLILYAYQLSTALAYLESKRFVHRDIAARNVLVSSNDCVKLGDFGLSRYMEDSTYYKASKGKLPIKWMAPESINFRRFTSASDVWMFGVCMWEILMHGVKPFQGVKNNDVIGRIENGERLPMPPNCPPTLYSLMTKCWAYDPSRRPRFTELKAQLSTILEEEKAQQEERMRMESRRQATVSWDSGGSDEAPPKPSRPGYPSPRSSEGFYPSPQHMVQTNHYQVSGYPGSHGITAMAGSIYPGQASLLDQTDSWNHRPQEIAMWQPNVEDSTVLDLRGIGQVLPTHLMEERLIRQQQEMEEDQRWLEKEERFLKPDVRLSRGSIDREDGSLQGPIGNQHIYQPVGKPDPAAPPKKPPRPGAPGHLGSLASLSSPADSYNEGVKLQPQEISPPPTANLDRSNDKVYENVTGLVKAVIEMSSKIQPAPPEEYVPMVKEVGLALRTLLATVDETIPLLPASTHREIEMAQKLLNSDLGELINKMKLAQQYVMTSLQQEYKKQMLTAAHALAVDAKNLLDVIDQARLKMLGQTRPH

As usually defined, the IC50 is the concentration at which inhibition is half-maximal. A high value points to lower potency. Take `CC(C)NS(=O)(=O)c1ccccc1Nc1nc(Nc2ccc(C(=O)N3CCCC3)cc2)nc2c1CCN2` [Example 78, N-isopropyl-2-(2-(4-(pyrrolidine-1-carbonyl)phenylamino)-6,7-dihydro-5H-pyrrolo[2,3-d]pyrimidin-4-ylamino)benzenesulfonamide]: the half-maximal inhibitory concentration (IC50) against PYK2 and on FAK was less than 20 nM each time.

In the case of `COc1cc(N2CCC(O)C2)ccc1Nc1nc2c(c(Nc3ccccc3S(=O)(=O)NC(C)C)n1)CCN2` (stereo not drawn) [Example 80, 2-(2-(4-(3-hydroxypyrrolidin-1-yl)-2-methoxyphenylamino)-6,7-dihydro-5H-pyrrolo[2,3-d]pyrimidin-4-ylamino)-N-isopropylbenzenesulfonamide], the IC50 on PYK2 is less than 100 nM; at FAK it was less than 20 nM.

As to `COc1cc(N2CCC(N3CCCCC3)CC2)ccc1Nc1nc2c(c(Nc3ccccc3S(=O)(=O)NC(C)C)n1)CCN2` [Example 92, 2-(2-(4-(1,4′-bipiperidin-1′-yl)-2-methoxyphenylamino)-6,7-dihydro-5H-pyrrolo[2,3-d]pyrimidin-4-ylamino)-N-isopropylbenzenesulfonamide], the IC50 against PYK2 and against FAK was less than 20 nM throughout.

`COc1cc(N2CCOCC2)ccc1Nc1nc2c(c(Nc3ccccc3S(=O)(=O)NC(C)(C)C)n1)CCN2` [Example 47, N-tert-butyl-2-(2-(2-methoxy-4-morpholinophenylamino)-6,7-dihydro-5H-pyrrolo[2,3-d]pyrimidin-4-ylamino)benzenesulfonamide]: the IC50 is less than 100 nM at PYK2 and less than 200 nM against FAK.

On to `COc1cc(-n2ccccc2=O)ccc1Nc1nc2c(c(Nc3ccccc3S(=O)(=O)NC(C)C)n1)CCN2` [Example 83, N-isopropyl-2-(2-(2-methoxy-4-(2-oxopyridin-1(2H)-yl)phenylamino)-6,7-dihydro-5H-pyrrolo[2,3-d]pyrimidin-4-ylamino)benzenesulfonamide], for which the IC50 against PYK2 and at FAK was less than 20 nM in each case.

With `COc1cc(N2CCOCC2)ccc1Nc1nc2c(c(Nc3ccccc3S(=O)(=O)Nc3ccccc3)n1)C(C)(C)CN2` [Example 116, 2-(2-(2-methoxy-4-morpholinophenylamino)-5,5-dimethyl-6,7-dihydro-5H-pyrrolo[2,3-d]pyrimidin-4-ylamino)-N-phenylbenzenesulfonamide], the IC50 against PYK2 was less than 500 nM; on FAK, less than 200 nM.

In the case of `COc1cc(N2CCOCC2)ccc1Nc1nc2c(c(Nc3ccccc3S(=O)(=O)NCCO)n1)C1(CC1)CN2` [Example 142, N-(2-hydroxyethyl)-2-(2′-(2-methoxy-4-morpholinophenylamino)-6′,7′-dihydrospiro[cyclopropane-1,5′-pyrrolo[2,3-d]pyrimidine]-4′-ylamino)benzenesulfonamide], the IC50 at PYK2 and on FAK was more than 1000 nM throughout.

Turning to `COc1cc(-n2ncnn2)ccc1Nc1nc2c(c(Nc3ccccc3S(=O)(=O)NC(C)C)n1)CCN2` [Example 88, N-isopropyl-2-(2-(2-methoxy-4-(2H-tetrazol-2-yl)phenylamino)-6,7-dihydro-5H-pyrrolo[2,3-d]pyrimidin-4-ylamino)benzenesulfonamide], the IC50 on PYK2 was less than 200 nM; at FAK it was less than 50 nM.

Consider `CCCNS(=O)(=O)c1ccccc1Nc1nc(Nc2ccc(N3CCOCC3)cc2OC)nc2c1CCN2` [Example 5, 2-(2-(2-methoxy-4-morpholinophenylamino)-6,7-dihydro-5H-pyrrolo[2,3-d]pyrimidin-4-ylamino)-N-propylbenzenesulfonamide], for which the IC50 against PYK2 and against FAK was less than 20 nM each time.

Turning to `CNC(=O)c1ccccc1Nc1nc(Nc2ccc(N3CCOCC3)c3c2OCCO3)nc2c1CCN2` [Example 16, N-methyl-2-(2-(8-morpholino-2,3-dihydrobenzo[b][1,4]dioxin-5-ylamino)-6,7-dihydro-5H-pyrrolo[2,3-d]pyrimidin-4-ylamino)benzamide], the results for the 50% inhibitory concentration (IC50) on PYK2 and against FAK were less than 200 nM and less than 500 nM, respectively.

In the case of `CCNS(=O)(=O)c1ccccc1Nc1nc(Nc2ccc(N3CCOCC3)cc2OC)nc2c1C1(CC1)CN2` [Example 139, N-ethyl-2-(2′-(2-methoxy-4-morpholinophenylamino)-6′,7′-dihydrospiro[cyclopropane-1,5′-pyrrolo[2,3-d]pyrimidine]-4′-ylamino)benzenesulfonamide], the IC50 at PYK2 and at FAK was less than 20 nM each time.

With `COc1cc(N2CCOCC2)ccc1Nc1nc2c(c(Nc3ccccc3S(=O)(=O)N(C)C)n1)CCN2` [Example 38, 2-(2-(2-methoxy-4-morpholinophenylamino)-6,7-dihydro-5H-pyrrolo[2,3-d]pyrimidin-4-ylamino)-N,N-dimethylbenzenesulfonamide], the IC50 on PYK2 was less than 200 nM; against FAK it was less than 50 nM.

As for `COc1cc(N2CCOCC2)ccc1Nc1nc2c(c(Nc3ccccc3S(=O)(=O)NCC3CC3)n1)C(C)(C)CN2` [Example 118, N-(cyclopropylmethyl)-2-(2-(2-methoxy-4-morpholinophenylamino)-5,5-dimethyl-6,7-dihydro-5H-pyrrolo[2,3-d]pyrimidin-4-ylamino)benzenesulfonamide], the half-maximal inhibitory concentration (IC50) against PYK2 and on FAK was less than 50 nM each time.

As to `COc1cc(N2CCOCC2)ccc1Nc1nc2c(c(Nc3ccccc3S(=O)(=O)NC3CCCCC3)n1)C(C)CN2` (racemic) [Example 29, (±)-N-cyclohexyl-2-(2-(2-methoxy-4-morpholinophenylamino)-5-methyl-6,7-dihydro-5H-pyrrolo[2,3-d]pyrimidin-4-ylamino)benzenesulfonamide], the IC50 on PYK2 is less than 500 nM; on FAK, less than 50 nM.

`COc1cc(N2CCOCC2)ccc1Nc1nc2c(c(Nc3ccccc3S(=O)(=O)NC(C)C)n1)CCN2` [Example 40, N-isopropyl-2-(2-(2-methoxy-4-morpholinophenylamino)-6,7-dihydro-5H-pyrrolo[2,3-d]pyrimidin-4-ylamino)benzenesulfonamide]: the IC50 against PYK2 and at FAK was less than 20 nM throughout.

Consider `COc1cc(N2CCOCC2)ccc1Nc1nc2c(c(Nc3ccccc3N(C)S(C)(=O)=O)n1)C(C)(C)CN2` [Example 122, N-(2-(2-(2-methoxy-4-morpholinophenylamino)-5,5-dimethyl-6,7-dihydro-5H-pyrrolo[2,3-d]pyrimidin-4-ylamino)phenyl)-N-methylmethanesulfonamide], for which the values for the IC50 at PYK2 and against FAK were less than 100 nM and less than 50 nM, respectively.

Consider `COc1cc(N2CCC(N(C)C)CC2)ccc1Nc1nc2c(c(Nc3ccccc3S(=O)(=O)NC(C)C)n1)CCN2` [Example 76, 2-(2-(4-(4-(dimethylamino)piperidin-1-yl)-2-methoxyphenylamino)-6,7-dihydro-5H-pyrrolo[2,3-d]pyrimidin-4-ylamino)-N-isopropylbenzenesulfonamide], for which the IC50 against PYK2 and at FAK was less than 20 nM throughout.

For `CC(C)NS(=O)(=O)c1ccccc1Nc1nc(Nc2ccc(OC(F)(F)F)cc2)nc2c1CCN2` [Example 71, N-isopropyl-2-(2-(4-(trifluoromethoxy)phenylamino)-6,7-dihydro-5H-pyrrolo[2,3-d]pyrimidin-4-ylamino)benzenesulfonamide], the IC50 was less than 100 nM against PYK2 and less than 200 nM on FAK.

Regarding `COc1cc(N2CCOCC2)ccc1Nc1nc2c(c(Nc3ccccc3S(=O)(=O)NC(C)C)n1)C(C)CN2` (stereo not drawn) [Example 101, N-isopropyl-2-(2-(2-methoxy-4-morpholinophenylamino)-5-methyl-6,7-dihydro-5H-pyrrolo[2,3-d]pyrimidin-4-ylamino)benzenesulfonamide], the IC50 against PYK2 and against FAK was less than 20 nM throughout.

`COc1cc(N2CCOCC2)ccc1Nc1nc2c(c(Nc3ccccc3S(=O)(=O)NC(C)C)n1)C1(CC1)CN2` [Example 138, N-isopropyl-2-(2′-(2-methoxy-4-morpholinophenylamino)-6′,7′-dihydrospiro[cyclopropane-1,5′-pyrrolo[2,3-d]pyrimidine]-4′-ylamino)benzenesulfonamide]: the IC50 against PYK2 and against FAK was less than 20 nM in each case.

`COc1nc(N2CCOCC2)ccc1Nc1nc2c(c(Nc3ccccc3S(=O)(=O)NC(C)C)n1)CCN2` [Example 56, N-isopropyl-2-(2-(2-methoxy-6-morpholino-3-ylamino)-6,7-dihydro-5H-pyrrolo[2,3-d]pyrimidin-4-ylamino)benzenesulfonamide]: the IC50 is less than 50 nM against PYK2 and less than 20 nM at FAK.
